Measured values taken from article PMC6266276 (Viruses, 2018).
Where “and” joins values, the source holds several entries; their conditions need not be identical. Equal entries are not always repeated. Entries after “also recorded” stand apart in the source; their conditions may differ. Where two headings read alike, the source gives them in different places.

Assays:
[1] = test system: vesicular stomatitis virus (VSV); assay type: cell-based, vesicular stomatitis virus (VSV) strain Indiana
[2] = test system: Newcastle disease virus (NDV); assay: microbe, parasite or virus in culture; assay type: cell-based, Newcastle disease virus (NDV) strain NA-1; details: for IC50: read-out: IC50, half maximal inhibitory concentration
[3] = test system: Newcastle disease virus (NDV); parameters: species or system Newcastle disease virus (NDV) strain NA-1; details: in vivo
[4] = test system: Newcastle disease virus (NDV); parameters: species or system Newcastle disease virus (NDV) strain NA-1; details: in vivo, 0.2 mg/kg
[5] = test system: porcine epidemic diarrhea virus (PEDV); assay: microbe, parasite or virus in culture; assay type: cell-based, porcine epidemic diarrhea virus (PEDV) strain CV777; details: for IC50: Porcine epidemic diarrhea virus, Vero, read-out: IC50, half maximal inhibitory concentration
[6] = test system: porcine epidemic diarrhea virus (PEDV); parameters: species or system porcine epidemic diarrhea virus (PEDV) strain CV777; details: pig, in vivo
[7] = test system: avian influenza virus (AIV); parameters: species or system avian influenza virus (AIV) strain H9-WD; details: in vivo
[8] = test system: herpes simplex virus type 1 (HSV-1); assay: microbe, parasite or virus in culture; assay type: cell-based, herpes simplex virus type 1 (HSV-1) strain F
pseudorabies virus (PRV) = assay type: cell-based, pseudorabies virus (PRV) strain Fa
[9] = test system: phosphorylated eIF4E (p-eIF4E); assay type: cell-based
[10] = pig, in vivo
[11] = chicken, in vivo
[12] = mouse, in vivo
chikungunya virus = details: HHT at 1 µM ref 38; cited from earlier work
[13] = test system: mouse hepatitis coronavirus (MHV); details: HHT at 125 nM ref 53; cited from earlier work
hepatitis B virus (HBV) = details: HHT at concentrations below 2 µM ref 52; cited from earlier work
[14] = test system: bovine viral diarrhea virus (BVDV); details: HHT at concentrations below 2 µM ref 52; cited from earlier work
acute myeloid leukemia = details: mice, HHT 1.0 mg/kg ref 26; cited from earlier work
in vitro [15] = details: human
in vitro [16] = details: African green monkey
VSV = details: cited from earlier work

COC(=O)C[C@](O)(CCCC(C)(C)O)C(=O)O[C@@H]1C(OC)=C[C@]23CCCN2CCc2cc4c(cc2[C@H]13)OCO4 [HHT, homoharringtonine]
VSV-G levels, time-of-addition [1]: strong reductions | inhibitory effect against viral infection, pre-treatment [1]: minimal inhibitory effect | reduction of the viral yields, co-/post-treatment [1]: complete reduction | reduction of viral yields [1]: 1.5 orders of magnitude | viral protein G levels of VSV (VSV-G) [1]: strong reduction | viral reduction [1]: 6.5 orders of magnitude and 5 orders of magnitude | viral yields [1]: dramatically reduced | NDV-NP level [2]: strong reduction | SI, Selectivity index = CC50/IC50 [2]: 107 | concentration that completely inhibited infection [2]: 100 nM | morphology and number of HeLa cells compared to mock infected sample [2]: no difference in morphology and number | production of recombinant NDV expressing GFP [2]: greatly reduced | IC90 ([2]; avian paramyxovirus 1, HeLa, 24 h): 0.04 µM | IC50 ([2]; avian paramyxovirus 1, HeLa): 0.018 µM | effect on viral infection in chicken embryos [3]: slight effect; also recorded: completely inhibited viral infection | reduction of HAU values [3]: one and three | mRNA level of NDV-NP in blood [4]: significantly decreased | mRNA level of NDV-NP in the liver and lung [4]: significantly decreased | pathological change in tissues and symptoms [4]: did not exhibit a pathological change in tissues or symptoms; also recorded: survived without pathogenic changes in tissues and symptoms | PEDV-N levels, time-of-addition [5]: strong reductions | PEDV-N protein and mRNA levels [5]: strong reduction | SI, Selectivity index = CC50/IC50 [5]: 50 | concentration that completely inhibited infection [5]: 500 nM | infection rate, time-of-addition [5]: less than 30% | reduction of viral yields [5]: 1.9 orders of magnitude | viral yields [5]: completely suppressed | IC50 [5]: 0.112 µM | inhibitory activity and death [6]: optimal inhibitory activity without death | pathological change in tissues and symptoms ([6]; 0.05 mg/kg): survived without pathogenic changes in tissues and symptoms | mRNA levels of PEDV-N in blood ([6]; 0.05 mg/kg/day): greatly decreaseed | mRNA levels of PEDV-N in the intestine ([6]; 0.05 mg/kg/day): greatly decreaseed | lung inflammation [7]: decreased local inflammatory reaction but aggravated overall inflammation; also recorded: moderately attenuated inflammation | number of AIV positive cells in lung [7]: No obvious reduction | HSV-ICP8 level [8]: strong reduction | SI, Selectivity index = CC50/IC50 [8]: 40 | viral replication [8]: strong reduction in viral replication | IC50 ([8]; Human alphaherpesvirus 1, Vero, read-out: IC50, half maximal inhibitory concentration): 0.139 µM | PRV-gC level (pseudorabies virus (PRV)): strong reduction | viral replication (pseudorabies virus (PRV)): strong reduction in viral replication | accumulation of Mcl-1 [9]: gradually reduced | cellular total eIF4E level [9]: unaffected | p-eIF4E induced by ectopic expression of wild-type eIF4E [9]: decreased the accumulation of p-eIF4E | p-eIF4E levels [9]: gradually reduced | p-eIF4E levels induced by viral infection, in parallel with viral protein [9]: gradually reduced | cell viability (HEK293T cells): no measurable decrease in cell viability | cell viability (HeLa cells): No measurable decrease in cell viability | cell viability (Vero cells): No measurable decrease in cell viability | 50% toxicity dose [10]: 0.2 mg/kg | animals for which side effects were fatal ([10]; 0.2 mg/kg): about 50% | 50% toxicity dose [11]: 0.4 mg/kg | inflammatory reaction in lung [12]: No obvious inflammatory reaction | inhibition of viral yield (chikungunya virus): 2–3 orders of magnitude | inhibition of MHV in vitro [13]: high-magnitude inhibition | antiviral efficacy on HBV DNA levels (hepatitis B virus (HBV)): no protective effects | antiviral efficacy on BVDV infection [14]: no protective effects | acute myeloid leukemia in vivo (acute myeloid leukemia): completely eradicate acute myeloid leukemia | CC50 (in vitro [15]): 1.92 µM | CC50 (in vitro [16]): 5.58 µM

O=c1c(O)c(-c2ccc(O)c(O)c2)oc2cc(O)cc(O)c12 [Quercetin]
SI, Selectivity index = CC50/IC50 [5]: >145 | IC50 [5]: 6.9 µM | CC50 (in vitro [16]): > 1000 µM

Nc1ncnc2n[nH]c(Nc3ccc(F)cc3)c12 [CGP57380]
cellular total eIF4E level [9]: without an effect on total eIF4E protein level | p-eIF4E levels [9]: prevent the phosphorylation of eIF4E

NC(=O)c1ncn([C@@H]2O[C@H](CO)[C@@H](O)[C@H]2O)n1 [Ribavirin]
concentrations at which antiviral activity was displayed [1]: over 100 µM | SI, Selectivity index = CC50/IC50 [2]: 64 | IC50 ([2]; avian paramyxovirus 1, HeLa): 44.2 µM | inhibition of VSV titer in cells (VSV): 2.5 orders of magnitude | CC50 (in vitro [15]): 2820 µM
